# Test results published in PMC10384874, “The Expression of Antibacterial Peptide Turgencin A in Pichia pastoris and an Analysis of Its Antibacterial Activity” (Molecules, 2023).
# No end group written: not given here.
# Tests used:
# S. aureus ATCC25923 [1] = experiment: Minimum inhibitory concentration (MIC) determination; format: cell-based, Staphylococcus aureus; conditions: S. aureus (ATCC 25923); 96-well plate, LB, fermentation supernatant diluted to 1-6 μg·mL^−1; lowest peptide concentration with no bacterial growth; n = 3
# Procedure: (§1) A single colony of the tested bacteria was picked to LB liquid medium and incubated at 37 °C until the OD600 reached about 1. This test bacteria solution was diluted 1000 times. The fermentation supernatant was serially diluted in a 96-well plate using replacement buffer to 1, 2, 3, 4, 5, and 6 μg·mL^−1 concentrations. Then, 20 μL of the diluted peptide and 100 μL of the test bacterium were added to each well. The negative control and positive control were […], respectively. The MIC value was defined as the lowest peptide concentration associated with no bacterial growth. In this study, the MIC values of Turgencin A were determined against S. aureus ATCC25923, Salmonella spp. ATCC10467, E. coli ATCC10305, E. Coli O157 ATCC35150, L. monocytogenes ATCC21633, and B. subtilis ATCC6633.
# B. subtilis ATCC6633 = experiment: as above; format: cell-based, Bacillus subtilis; conditions: B. subtilis (ATCC 6633); 96-well plate, LB, fermentation supernatant diluted to 1-6 μg·mL^−1; lowest peptide concentration with no bacterial growth; n = 3
# Procedure: as §1
# [2] = test system: L. monocytogenes ATCC21633; experiment: as above; format: cell-based, Listeria monocytogenes; conditions: L. monocytogenes (ATCC 21633); 96-well plate, LB, fermentation supernatant diluted to 1-6 μg·mL^−1; lowest peptide concentration with no bacterial growth; n = 3
# Procedure: as §1
# [3] = test system: Salmonella spp. ATCC10467; experiment: as above; format: cell-based; conditions: Salmonella spp. (ATCC 10467); 96-well plate, LB, fermentation supernatant diluted to 1-6 μg·mL^−1; lowest peptide concentration with no bacterial growth; n = 3
# Procedure: as §1
# E. coli O157 ATCC35150 = experiment: as above; format: cell-based, Escherichia coli O157; conditions: E. coli O157 (ATCC 35150); 96-well plate, LB, fermentation supernatant diluted to 1-6 μg·mL^−1; lowest peptide concentration with no bacterial growth; n = 3
# Procedure: as §1
# E. coli ATCC10305 = experiment: as above; format: cell-based, Escherichia coli; conditions: E. coli (ATCC 10305); 96-well plate, LB, fermentation supernatant diluted to 1-6 μg·mL^−1; lowest peptide concentration with no bacterial growth; n = 3
# Procedure: as §1
# S. aureus ATCC25923 [4] = experiment: Agar well diffusion assay; format: cell-based, Staphylococcus aureus; conditions: 9 μg·mL^−1 rTurgencin A fermentation supernatant, 50 μL per well, against 50 μg·mL^−1 gentamicin
# Procedure: (§2) The test bacterial strain was seeded into an LB liquid medium and cultured at 37 °C until the OD600 value reached 1. In total, 50 μL of bacteria was mixed with the 15 mL molten LB medium (1% peptone, 1% NaCl, and 0.5% yeast extract) at 25 °C and allowed to solidify. Holes were punched with sterile gun heads. Subsequently, 50 μL of the fermentation supernatant was added to the holes. Gentamicin (Gen) at 50 µg·mL^−1 was used as the positive control. The antibacterial peptide SC3, which was not active in the laboratory, was used as the negative control.
# [5] = test system: L. monocytogenes ATCC21633; experiment: Agar well diffusion assay; format: cell-based, Listeria monocytogenes; conditions: 9 μg·mL^−1 rTurgencin A fermentation supernatant, 50 μL per well, against 50 μg·mL^−1 gentamicin
# Procedure: as §2
# [6] = test system: Gram-positive and Gram-negative bacteria; experiment: Agar well diffusion assay, inhibition profiling of six strains; format: cell-based; conditions: fermentation supernatant, 9 μg·mL^−1 rTurgencin A; B. subtilis, S. aureus, L. monocytogenes, Salmonella spp., E. coli O157, E. coli
# Procedure: as §2
# S. aureus ATCC25923 [7] = experiment: pH stability, read out by agar well diffusion assay; format: physicochemical, Staphylococcus aureus; conditions: 13.7 μg·mL^−1; 100 mM buffers pH 2, 4, 6, 8, 10; 37 °C, 4 h; inhibition circle against S. aureus ATCC25923 after 12 h; n = 3
# Procedure: as §2
# (§3) The rTurgencin A freeze-dried fermentation supernatant was dissolved in different buffers. The contents were all 200 mg·mL^−1. Therefore, the concentrations of rTurgencin A in this experiment were all 13.7 μg·mL^−1.
# The rTurgencin A freeze-dried fermentation supernatant was dissolved in a glycine solution at a pH of 2, a sodium acetate solution at a pH of 4, a Tris-HCl solution at a pH of 6, a Tris-HCl solution at a pH of 8, and a glycine solution at a pH of 10. The final concentrations of the buffer solution were all 100 mM. Then, the samples were treated at 37 °C for 4 h and subjected to the agar well diffusion assay. Twelve hours later, the inhibition circle was observed. The negative control was a buffer solution of different pHs.
# S. aureus ATCC25923 [8] = experiment: Temperature stability, read out by agar well diffusion assay; format: physicochemical, Staphylococcus aureus; conditions: 13.7 μg·mL^−1 in 50 mM pH 7.4 Tris-HCl, inhibition circle against S. aureus ATCC25923 after 12 h, n = 3
# Procedure: as §2, §3
# The rTurgencin A freeze-dried fermentation supernatant was dissolved in a 50 mM pH 7.4 Tris-HCl solution and then treated at 4 °C, 25 °C, 37 °C, 65 °C, and 90 °C for 1 h. The samples were subjected to an agar well diffusion assay. Twelve hours later, the inhibition circle was observed. The negative control was a 50 mM pH 7.4 Tris-HCl solution after treatment for 1 h at the same temperature.
# S. aureus ATCC25923 [9] = experiment: Protease stability, read out by agar well diffusion assay; format: in vitro ADME, Staphylococcus aureus; conditions: 2 h, 13.7 μg·mL^−1, inhibition circle against S. aureus ATCC25923, n = 3
# Procedure: as §2, §3
# The rTurgencin A freeze-dried fermentation supernatant was dissolved in buffers of a glycine solution at a pH of 2, a PBS solution at a pH of 6, a Tris-HCl solution at a pH of 7, and a Tris-HCl solution at a pH of 8. The final concentrations of the buffer solution were all 100 mM. Pepsin was added to the solution at a pH of 2, papain at a pH of 6, proteinase K at a pH of 7, and trypsin at a pH of 8. The protease concentrations were all 1 mg·mL^−1. The mixtures of 0.24 U of different protease solutions and rTurgencin A were reacted at 37 °C for 2 h. The samples were then subjected to an agar well diffusion assay. Twelve hours later, the inhibition circle was observed. The negative control was different protease solutions.
# S. aureus ATCC25923 [10] = experiment: Stability in salt solutions, read out by agar well diffusion assay; format: physicochemical, Staphylococcus aureus; conditions: 5 mM MgCl2, 50 mM MgCl2, 50 mM KCl and 150 mM KCl; 13.7 μg·mL^−1; inhibition circle against S. aureus ATCC25923; n = 3
# Procedure: as §2, §3
# The rTurgencin A freeze-dried fermentation supernatant was dissolved in 5 mM MgCl2, 50 mM MgCl2, 50 mM KCl, and 150 mM KCl, respectively. Then, the samples were subjected to an agar well diffusion assay. Twelve hours later, the inhibition circle was observed. The negative control was the different salt solutions.
# S. aureus ATCC25923 [11] = experiment: Total nucleotide leakage; format: cell-based, Staphylococcus aureus; conditions: positive control 0.1% Triton X-100, 4 h
# Procedure: The total nucleotide leakage associated with the peptide activity was analyzed according to the protocol described by Shwaiki et al.. We detected the total nucleotide leakage of the effect of Turgencin A on the cell membrane of S. aureus ATCC25923. The OD of each concentration was measured at 260 nm after four hours of contact reaction. The positive and negative controls were 0.1% Triton X-100 and water, respectively.
# [12] = test system: total food spoilage bacteria in pork; experiment: Pork preservation experiment, total number of bacteria; conditions: pork treated with rTurgencin A at 10 μg·mL^−1, stored at 4 °C; days 0, 1, 3, 5; control group increasing
# Procedure: The fermentation supernatant was passed through a 0.22 μm membrane filter and transferred to a beaker. Fresh pork hind leg meat was cut into 5 g pieces and placed in the above solution, soaked for 1 min in each direction, shaken so that the surface of the meat was fully exposed to the solution, removed, placed on cling film to drain, left for 5 min at room temperature, turned over, and left for another 5 min to remove excess water so that the meat neither dripped nor was too dry. […] The colony count is expressed by colony-forming units (CFU), and a common logarithm determines the total number of colonies. SC3 served as the negative control.
# [13] = Pork preservation experiment, flesh color; conditions: pork treated with rTurgencin A at 10 μg·mL^−1, stored at 4 °C; days 0, 2, 4, 6; control deteriorated on day 4
# Procedure: The fermentation supernatant was passed through a 0.22 μm membrane filter and transferred to a beaker. Fresh pork hind leg meat was cut into 5 g pieces and placed in the above solution, soaked for 1 min in each direction, shaken so that the surface of the meat was fully exposed to the solution, removed, placed on cling film to drain, left for 5 min at room temperature, turned over, and left for another 5 min to remove excess water so that the meat neither dripped nor was too dry. The meat was then wrapped in plastic and stored in a refrigerator at 4 °C for seven days. During this period, the pork samples were tested for colony counts every 48 h, according to the method of GB 4789-2022 [42]. The colony count is expressed by colony-forming units (CFU), and a common logarithm determines the total number of colonies. SC3 served as the negative control.
# [14] = Antibacterial activity of the nickel column purified product; format: cell-based; conditions: nickel column purified product after dialysis of the replacement solution
# Procedure: For the affinity purification with a nickel column, the Ni NTA Beads 6FF filler (Smart-Lifesciences, Changzhou, China) was added to the column, and the filler was rinsed twice with distilled water to remove ethanol, followed by two rinses with binding buffer (50 mM Tris-HCl pH = 7.9, 500 mM NaCl, and 10 mM Imidazole). The fermentation supernatant was treated with a 0.45 μm membrane filter, added to the nickel column, and combined with filler for 1 h in a low-speed shaker at 4 °C. The flow solution was collected and rinsed with binding buffer (50 mM Tris-HCl pH = 7.9, 500 mM NaCl, and 10 mM Imidazole) three times to wash off unbound proteins. Elution buffer (50 mM Tris-HCl pH = 7.9, 500 mM NaCl, and 1 M imidazole) was added and the eluent of the target protein was collected. Finally, the eluent was dialyzed in 0.01 M PBS for 12 h at a low temperature.
sequence,measurement,setting,value
"GPKTKAACKMACKLATCGKKPGGWKCKLCELGCDAV (disulfide (positions not given here)) [rTurgencin A, His-tagged recombinant Turgencin A expressed in Pichia pastoris; tested as yeast fermentation supernatant, concentration by ELISA]",MIC,S. aureus ATCC25923 [1],3 µg/mL
same,MIC,B. subtilis ATCC6633,2 µg/mL
same,MIC,[2],3 µg/mL
same,MIC,[3],4 µg/mL
same,MIC,E. coli O157 ATCC35150,5 µg/mL
same,MIC,E. coli ATCC10305,5 µg/mL
same,inhibition circle diameter compared with gentamicin,S. aureus ATCC25923 [4],more significant than 50 μg·mL^−1 gentamicin
same,inhibition circle diameter compared with gentamicin,[5],more significant than 50 μg·mL^−1 gentamicin
same,antibacterial activity (inhibition profiling),[6],provided antibacterial activity against Gram-positive and Gram-negative bacteria
same,reduction in inhibitory action at low pHs,S. aureus ATCC25923 [7],40%
same,stability at neutral and high pH levels,S. aureus ATCC25923 [7],good stability
same,stability at low and room temperatures,"S. aureus ATCC25923 [8]; 4 °C, 25 °C and 37 °C for 1 h",good stability
same,diameter of the inhibition circle as % of the maximum inhibition circle diameter,S. aureus ATCC25923 [8]; 90 °C for 1 h,55%
same,stability in papain,"S. aureus ATCC25923 [9]; papain 1 mg·mL^−1 (0.24 U), 100 mM PBS pH 6, 37 °C",good stability
same,antibacterial activity remaining in the presence of pepsin,"S. aureus ATCC25923 [9]; pepsin 1 mg·mL^−1 (0.24 U), 100 mM glycine pH 2, 37 °C",70%
same,stability in k-protease,"S. aureus ATCC25923 [9]; proteinase K 1 mg·mL^−1 (0.24 U), 100 mM Tris-HCl pH 7, 37 °C",good stability
same,stability in trypsin,"S. aureus ATCC25923 [9]; trypsin 1 mg·mL^−1 (0.24 U), 100 mM Tris-HCl pH 8, 37 °C",good stability
same,antibacterial activity in salt solutions,S. aureus ATCC25923 [10],not affected
same,total nucleotide leakage relative to the positive control,S. aureus ATCC25923 [11]; 1 × MIC,34.3%
same,total nucleotide leakage relative to the positive control,S. aureus ATCC25923 [11]; 2 × MIC,77.3%
same,total nucleotide leakage relative to the positive control,S. aureus ATCC25923 [11]; 3 × MIC,131.5%
same,bacterial colonies in pork over storage days,[12],showed a decreasing trend with an increase in days
same,color of the pork flesh,[13],still bright on the fourth day
same,antibacterial activity of the purified product,[14],deficient antibacterial activity
